US7868013B2, “Cycloalkyl substituted pyrimidinediamine compounds and their uses” (Rigel Pharmaceuticals, Inc., priority 2004, dated 2011)
Counter-ions that a name gives are not always drawn. Like-named read-outs stand apart in the source and are kept apart here.

Legend:
A549 (lung carcinoma) = assay: In vitro antiproliferation assay, A549 cells (TABLE 1 6 point assay; TABLE 2); assay type: cell-based
Procedure: (§1) Certain compounds were tested against other cell types for their ability to inhibit proliferation in standard antiproliferation assays.

[1] = test system: H1299 (non-small cell lung carcinoma); assay: In vitro antiproliferation assay, H1299 cells (TABLE 1 6 point assay; TABLE 2); assay type: cell-based; details: Homo sapiens
Procedure: as §1

[2] = Homo sapiens, A549, A549 cells, 6 point assay, read-out: A549, 6pt (IC50, inhibition of proliferation)
[3] = NCI-H1299, H1299 cells, 6 point assay, read-out: H1299, 6pt (IC50, inhibition of proliferation)
[4] = Homo sapiens, A549, 6 point assay, A549 cells, read-out: IC50, A549 cells
[5] = NCI-H1299, 6 point assay, H1299 cells, read-out: IC50, H1299 cells

| SMILES | IC50 (A549 (lung carcinoma); [2]) | IC50 [1, 3] | IC50 (A549 (lung carcinoma); [4]) | IC50 [1, 5] | IC50 (A549 (lung carcinoma); 6 point assay, A549 cells, read-out: IC50, A549 cells) |
| --- | --- | --- | --- | --- | --- |
| CCOC(=O)N1CCN(c2ccc(Nc3ncc(F)c(NC4CCCC4C(N)=O)n3)cc2)CC1 (stereo not drawn) [compound 199, N4-(2-Carboxamidocyclopentyl)-N2-[4-(4-ethoxycarbonylpiperazino)phenyl]-5-fluoro-2,4-pyrimidinediamine] |  |  | 100 to 1000 nM | 100 to 1000 nM |  |
| Cc1cc(Nc2ncc(F)c(N[C@@H]3[C@H]4CC[C@H](C4)[C@@H]3C(=O)NC3CC3)n2)ccc1N1CCN(C)CC1 [compound 253, (1S,2R,3S,4R)-N4-(3-N-Cyclopropylaminocarbonylbicyclo[2.2.1]hept-2-yl)-5-fluoro-N2-[3-methyl-4-(4-methylpiperazin-1-yl)phenyl]-2,4-pyrimidinediamine] |  |  | 100 to 1000 nM | 100 to 1000 nM |  |
| NC(=O)[C@@H]1CCC[C@@H]1Nc1nc(Nc2ccc3c(c2)CCN3)ncc1F (racemic) [compound 157, Racemic-cis-N4-(2-aminocarbonylcyclopent-1-yl)-N2-(2,3-dihydroindol-5-yl)-5-fluoro-2,4-pyrimidinediamine] | 1000 to 10000 nM | 1000 to 10000 nM |  |  |  |
| Cc1cc(Nc2ncc(F)c(NC3C4C=CC(C4)C3C(=O)OC3C[C@@H](C)CC[C@@H]3C(C)C)n2)ccc1N1CCN(C)CC1 (mixture of isomers) [compound 135, Racemic (2-exo,3-exo)-5-Fluoro-N4-[3-(1R,2S,5R)-(−)-menthyloxycarbonylbicyclo[2.2.1]hept-5-en-2-yl]-N2-[3-methyl-4-(4-methylpiperazin-1-yl)phenyl]-2,4-pyrimidinediamine] | 1000 to 10000 nM | 1000 to 10000 nM |  |  |  |
| NC(=O)C1C2C=CC(C2)C1Nc1nc(Nc2cccc(C3CCNCC3)c2)ncc1F (racemic) [compound 267, Racemic-(2-exo,3-exo)-N4-(3-aminocarbonylbicyclo[2.2.1]hept-5-en-2-yl)-5-fluoro-N2-[3-(piperidin-4-yl)phenyl]-2,4-pyrimidinediamine] |  |  | ≤ 100 nM | ≤ 100 nM |  |
| CN1CCN(Cc2cc3cc(Nc4ncc(F)c(N[C@H]5CCC[C@H]5C(N)=O)n4)ccc3o2)CC1 (racemic) [compound 131, Racemic-cis-N4-(2-aminocarbonylcyclopent-1-yl)-5-fluoro-N2-[2-(4-methylpiperazin-1-ylmethylene)benzofuran-5-yl]-2,4-pyrimidinediamine] | 1000 to 10000 nM | 1000 to 10000 nM |  |  |  |
| CN1CCN(c2ccc(Nc3ncc(F)c(NC4CCCC4C(N)=O)n3)cc2C(F)(F)F)CC1 (stereo not drawn) [compound 204, (cis)-N4-(2-Carboxamidocyclopent-1-yl)-5-fluoro-N2-[4-(4-methylpiperazino)-3-trifluoromethylphenyl]-1,4-pyrimidinediamine] |  |  | 100 to 1000 nM | 1000 to 10000 nM |  |
| Cc1cc(Nc2ncc(F)c(N[C@H]3CCCC[C@H]3C(N)=O)n2)ccc1N1CCN(C)CC1 (racemic) [compound 223, Racemic-cis-N4-(2-aminocarbonylcyclohex-1-yl)-5-fluoro-N2-[3-methyl-4-(4-methylpiperazin-1-yl)phenyl]-2,4-pyrimidinediamine] |  |  |  | 1000 to 10000 nM | 100 to 1000 nM |
| NC(=O)C1C2C=CC(C2)C1Nc1nc(Nc2ccc(C3CCNCC3)cc2)ncc1F (racemic) [compound 264, Racemic-(2-exo,3-exo)-N4-(3-aminocarbonylbicyclo[2.2.1]hept-5-en-2-yl)-5-fluoro-N2-[4-(piperidin-4-yl)phenyl]-2,4-pyrimidinediamine] |  |  | ≤ 100 nM | 100 to 1000 nM |  |
| CN(C)CCN1CCc2cc(Nc3ncc(F)c(NC4C5CCC(C5)C4C(=O)NC4CC4)n3)ccc21 (racemic) [compound 178, Racemic-(2-exo,3-exo)-N4-[3-cyclopropylaminocarbonylbicyclo[2.2.1]hept-2-yl)-N2-[1-(2-dimethylaminoethyl)-2,3-dihydro-indol-5-yl]-5-fluoro-2,4-pyrimidinediamine] | ≤ 100 nM | ≤ 100 nM |  |  |  |

The next lines start with the values.

| IC50 (A549 (lung carcinoma); [2]) | IC50 [1, 3] | IC50 (A549 (lung carcinoma); [4]) | IC50 [1, 5] | IC50 (A549 (lung carcinoma); 6 point assay, A549 cells, read-out: IC50, A549 cells) | SMILES |
| --- | --- | --- | --- | --- | --- |
| 100 to 1000 nM | 1000 to 10000 nM |  |  |  | Cc1cc(Nc2ncc(F)c(N[C@@H]3[C@H](C(=O)NC4CC4)[C@H]4C=C[C@@H]3C4)n2)ccc1N1CCN(C)CC1 [compound 191, (1S,2S,3R,4R)-N4-[3-(N-Cyclopropyl)aminocarbonylbicyclo[2.2.1]hept-5-en-2-yl]-5-fluoro-N2-[3-methyl-4-(4-methylpiperazin-1-yl)phenyl]-2,4-pyrimidinediamine] |
| 100 to 1000 nM | 100 to 1000 nM |  |  |  | Cc1cc(Nc2ncc(F)c(N[C@@H]3[C@H](C(=O)NC(C)c4ccccc4)[C@H]4C=C[C@@H]3C4)n2)ccc1N1CCN(C)CC1 (stereo partly drawn) [compound 110, (1S,2S,3R,4R)-N4-5-Fluoro-N4-(3-(R)-alpha-methylbenzylaminocarbonylbicyclo[2.2.1]hept-5-en-2-yl)-N2-[3-methyl-4-(4-methylpiperazin-1-yl)phenyl]-2,4-pyrimidinediamine] |
| ≤ 100 nM | 100 to 1000 nM |  |  |  | CN(C)CCn1ccc2ccc(Nc3ncc(F)c(NC4C5C=CC(C5)C4C(=O)NC4CC4)n3)cc21 (racemic) [compound 169, Racemic-(2-exo,3-exo)-N4-[3-cyclopropylaminocarbonylbicyclo[2.2.1]hept-5-en-2-yl)-N2-[1-(2-dimethylaminoethyl)indol-6-yl]-5-fluoro-2,4-pyrimidinediamine] |
| ≤ 100 nM | ≤ 100 nM |  |  |  | CNC(=O)C1C2C=CC(C2)C1Nc1nc(Nc2ccc3c(ccn3CCN(C)C)c2)ncc1F (racemic) [compound 183, Racemic-(2-exo,3-exo)-N2-[1-(2-dimethylaminoethyl)indol-5-yl]-5-fluoro-N4-[3-methylaminocarbonylbicyclo[2.2.1]hept-5-en-2-yl)-2,4-pyrimidinediamine] |
| 100 to 1000 nM | 100 to 1000 nM |  |  |  | CN(C)CCN1CCc2cc(Nc3ncc(F)c(NC4C5C=CC(C5)C4C(N)=O)n3)ccc21 (racemic) [compound 171, Racemic-(2-exo, 3-exo)-N4-(3-aminocarbonylbicyclo[2.2.1]hept-5-en-2-yl)-5-fluoro-N2-[N-(2-dimethylaminoethyl)-2,3-dihydro-indol-5-yl]-2,4-pyrimidinediamine Bis Hydrogen Chloride Salt] |
|  |  | ≤ 100 nM | ≤ 100 nM |  | CN1CCC(c2cccc(Nc3ncc(F)c(NC4C5C=CC(C5)C4C(N)=O)n3)c2)CC1 (racemic) [compound 268, Racemic-(2-exo,3-exo)-N4-(3-aminocarbonylbicyclo[2.2.1]hept-5-en-2-yl)-5-fluoro-N2-[3-(1-methylpiperidin-4-yl)phenyl]-2,4-pyrimidinediamine] |
| ≤ 100 nM | ≤ 100 nM |  |  |  | Cc1ccc(Nc2ncc(F)c(N[C@H]3[C@@H](C(N)=O)[C@@H]4C=C[C@H]3C4)n2)cc1OCCN1CCOCC1 [compound 115, (1R,2R,3S,4S)-N4-(3-Aminocarbonylbicyclo[2.2.1]hept-5-en-2-yl)-5-fluoro-N2-[4-methyl-3-(2-morpholinoethyloxy)phenyl]-2,4-pyrimidinediamine] |
|  |  | ≤ 100 nM | ≤ 100 nM |  | Cc1cc(Nc2ncc(F)c(NC3C4C=CC(C4)C3C(N)=O)n2)ccc1NC1CCN(C)CC1 (racemic) [compound 262, Racemic-(2-exo,3-exo)-N4-(3-aminocarbonylbicyclo[2.2.1]hept-5-en-2-yl)-5-fluoro-N2-[3-methyl-4-(1-methylpiperidin-4-ylamino)phenyl]-2,4-pyrimidinediamine] |
|  |  | ≤ 100 nM | ≤ 100 nM |  | Cc1cc(Nc2ncc(F)c(NC3C4C=CC(C4)C3C(N)=O)n2)ccc1N1CCSCC1 (racemic) [compound 251, Racemic-(2-exo,3-exo)-N4-(3-aminocarbonylbicyclo[2.2.1]hept-5-en-2-yl)-5-fluoro-N2-[(3-methyl-1-thiomorpholin-4-yl)phenyl]-2,4-pyrimidinediamine] |
| ≤ 100 nM | ≤ 100 nM |  |  |  | CCNC(=O)C1C2C=CC(C2)C1Nc1nc(Nc2ccc3c(c2)CCN3S(C)(=O)=O)ncc1F (racemic) [compound 182, Racemic-(2-exo,3-exo)-N4-[3-ethylaminocarbonylbicyclo[2.2.1]hept-5-en-2-yl)-5-fluoro-N2-[1-methylsulfonyl-2,3-dihydro-indol-5-yl]-2,4-pyrimidinediamine] |
| ≤ 100 nM | ≤ 100 nM |  |  |  | CN(C)CCN1CCc2cc(Nc3ncc(F)c(N[C@H]4[C@@H](C(N)=O)[C@@H]5C=C[C@H]4C5)n3)ccc21 [compound 186, (1R,2R,3S,4S)-N4-[3-Aminocarbonylbicyclo[2.2.1]hept-5-en-2-yl]-N2-[1-(2-dimethylaminoethyl)-2,3-dihydroindol-5-yl]-5-fluoro-2,4-pyrimidinediamine] |
|  |  | 100 to 1000 nM | 100 to 1000 nM |  | CN1CCN(c2ccc(Nc3ncc(F)c(NC4C5C=CC(C5)C4C(N)=O)n3)cc2C(N)=O)CC1 (racemic) [compound 260, Racemic-(2-exo,3-exo)-N2-[3-aminocarbonyl-4-(4-methylpiperazin-1-yl)phenyl]-N4-(3-aminocarbonylbicyclo[2.2.1]hept-5-en-2-yl)-5-fluoro-2,4-pyrimidinediamine] |
| 100 to 1000 nM | ≤ 100 nM |  |  |  | CN(C)CCN1CCc2cc(Nc3ncc(F)c(N[C@@H]4[C@H](C(N)=O)[C@H]5C=C[C@@H]4C5)n3)ccc21 (racemic) [compound 160, Racemic-(2-exo,3-exo)-N4-[3-aminocarbonylbicyclo[2.2.1]hept-5-en-2-yl)-N2-[1-(2-dimethylaminoethyl)-2,3-dihydroindol-5-yl]-5-fluoro-2,4-pyrimidinediamine] |
|  |  | ≤ 100 nM | ≤ 100 nM |  | CN1CCN(c2ccc(Nc3ncc(F)c(NC4C5C=CC(C5)C4C(N)=O)n3)cc2)CC1 (racemic) [compound 230, Racemic-(2-exo,3-exo)-N4-(3-aminocarbonylbicyclo[2.2.1]hept-5-en-2-yl)-5-fluoro-N2-[4-(4-methylpiperazin-1-yl)phenyl]-2,4-pyrimidinediamine] |
